Values of other authors in patent US20140018438A1, “METHOD OF DESTROYING BACTERIAL BIOFILM USING STERILE INTRAVENOUS OR INTRACAVERNOUS GLYCERIN” (priority 2012, published 2014).

Conditions: sterile product for intravenous administration, generally 3% concentration at 80-100 milliliters per hour

OCC(O)CO [Glycerin]
allergic reactions / safety profile: free of allergic reactions
